Results: patent publication US20120196824A1, “THERAPEUTIC AGENT FOR CEREBRAL INFARCTION” (MITSUBISHI TANABE PHARMA CORPORATION, priority 2009, published 2012)
Structures can show the parent of a compound that is named as a salt.

Tests used:
[1] = target: T1, Human-recombinant-S-Adenosyl-L-Homocysteine Hydrolase (Homo sapiens, UniProt P23526); assay: Measurement of enzyme inhibitory activity (hydrolysis of S-Adenosyl-L-Homocysteine, HPLC); assay type: biochemical; conditions: S-Adenosyl-L-Homocysteine 10 μM, pH 7.2, 37° C., 15 min
T1 construct: purchased Diazyme Laboratories
T1 sequence (P23526 whole entry): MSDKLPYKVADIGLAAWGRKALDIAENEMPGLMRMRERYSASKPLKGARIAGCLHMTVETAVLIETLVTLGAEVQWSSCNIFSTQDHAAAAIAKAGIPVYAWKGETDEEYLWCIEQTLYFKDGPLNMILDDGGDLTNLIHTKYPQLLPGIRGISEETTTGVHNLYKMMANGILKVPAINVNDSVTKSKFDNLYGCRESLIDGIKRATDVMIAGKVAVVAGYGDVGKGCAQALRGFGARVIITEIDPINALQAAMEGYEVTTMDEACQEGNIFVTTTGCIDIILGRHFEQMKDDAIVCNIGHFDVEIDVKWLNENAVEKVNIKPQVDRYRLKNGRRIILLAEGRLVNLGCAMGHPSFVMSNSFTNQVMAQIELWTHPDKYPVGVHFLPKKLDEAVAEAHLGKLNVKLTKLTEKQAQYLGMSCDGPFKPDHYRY
Procedure: The enzyme inhibitory activity of the compounds of the Examples was measured using the hydrolysis activity of S-Adenosyl-L-Homocysteine as an index. The measurement method was modification of the method of Henry H. Richards et al. (J. Biol. Chem. 253, 4476-4480, 1978). That is, S-Adenosyl-L-Homocysteine (10 μM) and Adenosine Deaminase (Roche) (4 units) were added to 50 mM phosphate buffer (pH 7.2, containing 1 mM EDTA) with the total amount being 200 μl, and to the solution were added a test substance and then Human-recombinant-S-Adenosyl-L-Homocysteine Hydrolase (50 ng, Diazyme Laboratories) to start the reaction, and the mixture was incubated at 37° C. for 15 min. The reaction was quenched by the addition of 1N aqueous perchloric solution (20 μl), and the mixture was centrifuged under the conditions of 10000 rpm, 5 min, 4° C. The supernatant was collected, and the amount of S-Adenosyl-L-Homocysteine after the reaction was quantified by HPLC. The column used was a reversed-phase column. The detailed conditions of HPLC were as follows.
column used: Wakopak^R HandyODS 150*4.6 mm (Wako Pure Chemical Industries, Ltd.) elution condition: 1.0 ml/min elution solvent: 0.1M acetate buffer (pH 4.0) containing 10 mM 1-heptanesulfonic acid containing 4% acetonitrile wavelength: 258 nm (UV) The inhibitory rate was determined with the amount of decrease in S-Adenosyl-L-Homocysteine before and after the reaction without using the test substance as 100%.
Inhibitory rate (%)={(amount of decrease of S-Adenosyl-L-Homocysteine in the presence of test substance)/(amount of decrease of S-Adenosyl-L-Homocysteine in the absence of test substance)}×100

[2] = test system: homocysteine synthesis; assay: Measurement of homocysteine synthesis inhibitory activity in vivo (methionine-loaded mouse, plasma homocysteine); conditions: dose of 10 mg/kg, oral, BALB/c mouse; methionine water 1 hr later; plasma 30 min after; read-out: activity (homocysteine synthesis inhibitory rate)
Procedure: A sample was orally administered to BALB/c mouse and, 1 hr later, methionine water (50 g/L) was orally administered at a proportion of 10 ml/kg. 30 min later, blood samples were collected with heparin from the abdominal vein and plasma was obtained. The plasma homocysteine concentration was measured by treating the plasma with tributylphosphine, removing protein with 10% trichloroacetic acid (TCA), fluorescent labeling the supernatant with 4-fluoro-7-sulfobenzofurazan ammonium salt (SBD-F) under alkali conditions, and quantifying by HPLC. The homocysteine synthesis inhibitory rate of the sample was determined with the difference in the homocysteine value between methionine water-loaded animal and methionine water-unloaded animal as 100%. The detailed conditions of HPLC were as follows.
column used: Wakopak^R HandyODS 150*4.6 mm (Wako Pure Chemical Industries, Ltd.) elution condition: 1.0 ml/min elution solvent: 0.1M phosphate buffer (pH 6.0) 2% methanol wavelength: ex 385 nm em 515 nm

| Compound | IC50 [1] [nM] | inhibition in vivo at 10 mg/kg [2] [%] |
| --- | --- | --- |
| CCNCCNC(=O)CN(CC(=O)N(C)N1Cc2ccccc2C1)c1ccc(-c2nc(C)no2)cc1C [Example 229, N^2-{2-[1,3-dihydro-2H-isoindol-2-yl(methyl)amino]-2-oxoethyl}-N^2-[2-methyl-4-(3-methyl-1,2,4-oxadiazol-5-yl)phenyl]-N^1-[2-(ethylamino)ethyl]glycinamide] | 35 | ≥ 40 |
| Cc1ccc(C#N)cc1N(CC(=O)NCCNC(C)C)CC(=O)N(C)N1Cc2ccccc2C1 [Example 1, N^2-(5-cyano-2-methylphenyl)-N^2-{2-[1,3-dihydro-2H-isoindol-2-yl(methyl)amino]-2-oxoethyl}-N^1-[2-(isopropylamino)ethyl]glycinamide dihydrochloride] | 68 | ≥ 40 |
| Cc1ccc(-c2nn(C)c(=O)o2)cc1N(CC(=O)NCCNC(C)C)CC(=O)N(C)N1Cc2ccccc2C1 [Example 88, N^2-{2-[1,3-dihydro-2H-isoindol-2-yl(methyl)amino]-2-oxoethyl}-N^2-[2-methyl-5-(4-methyl-5-oxo-4,5-dihydro-1,3,4-oxadiazol-2-yl)phenyl]-N^1-[2-(isopropylamino)ethyl]glycinamide] | 43 | 20 to 40 |
| CCN1C(=O)CCc2cc(N(CC(=O)NCCNC(C)C)CC(=O)N(C)N3Cc4ccccc4C3)c(C)cc21 [Example 176, N^2-{2-[1,3-dihydro-2H-isoindol-2-yl(methyl)amino]-2-oxoethyl}-N^2-(1-ethyl-7-methyl-2-oxo-1,2,3,4-tetrahydroquinolin-6-yl)-N^1-[2-(isopropylamino)ethyl]glycinamide] | 63 | ≥ 40 |
| CCNCCNC(=O)CN(CC(=O)N(C)N1Cc2ccc(F)cc2C1)c1cc2nn(CC(F)F)cc2cc1C [Example 268, N^2-[2-(2,2-difluoroethyl)-5-methyl-2H-indazol-6-yl]-N^2-{2-[(5-fluoro-1,3-dihydro-2H-isoindol-2-yl)(methyl)amino]-2-oxoethyl}-N^1-[2-(ethylamino)ethyl]glycinamide hydrochloride] |  | < 20 |
| Cc1nnc(-c2ccc(C)c(N(CC(=O)NCCNC(C)C)CC(=O)N(C)N3Cc4ccccc4C3)c2)s1 [Example 105, N^2-{2-[1,3-dihydro-2H-isoindol-2-yl(methyl)amino]-2-oxoethyl}-N^2-[2-methyl-5-(5-methyl-1,3,4-thiadiazol-2-yl)phenyl]-N^1-[2-(isopropylamino)ethyl]glycinamide dihydrochloride] |  | 20 to 40 |
| CCNCCNC(=O)CN(CC(=O)N(C)N1Cc2ccccc2C1)c1cc(-c2nn(CC)c(=O)o2)ccc1C [Example 92, N^2-{2-[1,3-dihydro-2H-isoindol-2-yl(methyl)amino]-2-oxoethyl}-N^2-[5-(4-ethyl-5-oxo-4,5-dihydro-1,3,4-oxadiazol-2-yl)-2-methylphenyl]-N^1-[2-(ethylamino)ethyl]glycinamide] | 48 | ≥ 40 |
| CCNCCNC(=O)CN(CC(=O)N(C)N1Cc2ccccc2C1)c1cc(C#N)ccc1C [Example 2, N^2-(5-cyano-2-methylphenyl)-N^2-{2-[1,3-dihydro-2H-isoindol-2-yl(methyl)amino]-2-oxoethyl}-N^1-[2-(ethylamino)ethyl]glycinamide dihydrochloride] | 92 | ≥ 40 |
| CCNCCNC(=O)CN(CC(=O)N(C)N1Cc2ccc(OC)cc2C1)c1cc(-c2noc(C)n2)ccc1C [Example 24, N^2-{2-[(5-methoxy-1,3-dihydro-2H-isoindol-2-yl)(methyl)amino]-2-oxoethyl}-N^2-[2-methyl-5-(5-methyl-1,2,4-oxadiazol-3-yl)phenyl]-N^1-[2-(ethylamino)ethyl]glycinamide] | 46 | 20 to 40 |
| CCNCCNC(=O)CN(CC(=O)N(C)N1Cc2ccc(F)cc2C1)c1cc2cn(C)nc2cc1C [Example 245, N^2-(2,6-dimethyl-2H-indazol-5-yl)-N^2-{2-[(5-fluoro-1,3-dihydro-2H-isoindol-2-yl)(methyl)amino]-2-oxoethyl}-N^1-[2-(ethylamino)ethyl]glycinamide hydrochloride] |  | 20 to 40 |
| CCNCCNC(=O)CN(CC(=O)N(C)N1Cc2ccccc2C1)c1cc(C(C)=O)ccc1C [57 (2HCl salt)] |  | ≥ 40 |
| Cc1cc2c(C)noc2cc1N(CC(=O)NCCNC(C)C)CC(=O)N(C)N1Cc2ccccc2C1 [Example 184, N^2-{2-[1,3-dihydro-2H-isoindol-2-yl(methyl)amino]-2-oxoethyl}-N^2-(3,5-dimethyl-1,2-benzisoxazol-6-yl)-N^1-[2-(isopropylamino)ethyl]glycinamide] | 37 | ≥ 40 |
| CCNCCNC(=O)CN(CC(=O)N(C)N1Cc2ccc(F)cc2C1)c1cc2cn(CC(F)F)nc2cc1C [Example 254, N^2-[2-(2,2-difluoroethyl)-6-methyl-2H-indazol-5-yl]-N^2-{2-[(5-fluoro-1,3-dihydro-2H-isoindol-2-yl)(methyl)amino]-2-oxoethyl}-N^1-[2-(ethylamino)ethyl]glycinamide hydrochloride] |  | 20 to 40 |
| CCNCCNC(=O)CN(CC(=O)N(C)N1Cc2ccccc2C1)c1ccc(-c2cnn(C)c2)cc1C [Example 136, N^2-{2-[1,3-dihydro-2H-isoindol-2-yl(methyl)amino]-2-oxoethyl}-N^2-[2-methyl-4-(1-methyl-1H-pyrazol-4-yl)phenyl]-N^1-[2-(ethylamino)ethyl]glycinamide trihydrochloride] |  | ≥ 40 |
| CCNCCNC(=O)CN(CC(=O)N(C)N1Cc2ccc(F)cc2C1)c1cc(-c2noc(CO)n2)ccc1C [Example 292, N^2-{2-[(5-fluoro-1,3-dihydro-2H-isoindol-2-yl)(methyl)amino]-2-oxoethyl}-N^2-{5-[5-(hydroxymethyl)-1,2,4-oxadiazol-3-yl]-2-methylphenyl}-N^1-[2-(ethylamino)ethyl]glycinamide hydrochloride] |  | 20 to 40 |
| CCNCCNC(=O)CN(CC(=O)N(C)N1Cc2ccccc2C1)c1ccc(-c2nc(C(=O)N(C)C)cs2)cc1C [Example 304, N^2-{2-[1,3-dihydro-2H-isoindol-2-yl(methyl)amino]-2-oxoethyl}-N^2-[4-{4-[(dimethylamino)carbonyl]-1,3-thiazol-2-yl}-2-methylphenyl]-N^1-[2-(ethylamino)ethyl]glycinamide dihydrochloride] |  | ≥ 40 |
| CCNCCNC(=O)CN(CC(=O)N(C)C1Cc2ccccc2C1)c1cc(-c2noc(C)n2)ccc1C [Example 26, N^2-{2-[2,3-dihydro-1H-inden-2-yl(methyl)amino]-2-oxoethyl}-N^2-[2-methyl-5-(5-methyl-1,2,4-oxadiazol-3-yl)phenyl]-N^1-[2-(ethylamino)ethyl]glycinamide] | 56 |  |
| CCNCCNC(=O)CN(CC(=O)N(C)N1Cc2ccc(F)cc2C1)c1cc(-c2nc(C)no2)ccc1C [Example 87, N^2-{2-[(5-fluoro-1,3-dihydro-2H-isoindol-2-yl)(methyl)amino]-2-oxoethyl}-N^2-[2-methyl-5-(3-methyl-1,2,4-oxadiazol-5-yl)phenyl]-N^1-[2-(ethylamino)ethyl]glycinamide] | 18 |  |
| CCNCCNC(=O)CN(CC(=O)N(C)N1Cc2ccccc2C1)c1cc2oc(=O)n(C)c2cc1C [Example 193, N^2-{2-[1,3-dihydro-2H-isoindol-2-yl(methyl)amino]-2-oxoethyl}-N^2-(3,5-dimethyl-1,3-benzoxazol-2(3H)-on-6-yl)-N^1-[2-(ethylamino)ethyl]glycinamide] | 29 |  |
| Cc1cc2onc(C)c2cc1N(CC(=O)NCCNC(C)C)CC(=O)N(C)N1Cc2ccccc2C1 [Example 180, N^2-{2-[1,3-dihydro-2H-isoindol-2-yl(methyl)amino]-2-oxoethyl}-N^2-(3,6-dimethyl-1,2-benzisoxazol-5-yl)-N^1-[2-(isopropylamino)ethyl]glycinamide] | 15 |  |
| CCNCCNC(=O)CN(CC(=O)N(C)N1Cc2ccc(F)cc2C1)c1cc2c(C)nn(C)c2cc1C [Example 256, N^2-{2-[(5-fluoro-1,3-dihydro-2H-isoindol-2-yl)(methyl)amino]-2-oxoethyl}-N^2-(1,3,6-trimethyl-1H-indazol-5-yl)-N^1-[2-(ethylamino)ethyl]glycinamide hydrochloride] | 47 |  |
